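Values below derive from 48-hour exposures of cells grown in 96-well plates, with endpoints linearly interpolated between the two concentrations bracketing the appropriate inhibition level. GI50 is the concentration that inhibits growth by half.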 The source made the active and inactive calls. No stated cut-off is given here; in the data, active = GI50 up to about 1.1 µM and inactive = higher.
How the values were obtained:
Assay in all cases: growth of human tumour cells (NCI), 48 h
A549 = tested on: A549
BT-549 = tested on: BT-549
DU-145 = tested on: DU-145
HL-60 = tested on: HL-60
HOP-62 = tested on: HOP-62
KM12 = tested on: KM12
M14 = tested on: M14
Malme-3M = tested on: Malme-3M
NCI-H460 = tested on: NCI-H460
NCI-H522 = tested on: NCI-H522
OVCAR-4 = tested on: OVCAR-4
OVCAR-8 = tested on: OVCAR-8
RXF 393 = tested on: RXF 393
SF-295 = tested on: SF-295
SF-539 = tested on: SF-539
SNB-19 = tested on: SNB-19
SNB-75 = tested on: SNB-75
SW-620 = tested on: SW-620
UO-31 = tested on: UO-31
HOP-92 = tested on: HOP-92

Measured: GI50

S=C(Nc1ccccn1)Nc1ccccc1Cl
inactive: A549 50.8 µM | BT-549 52.8 µM | DU-145 > 100 µM | HL-60 > 80.7 µM | HOP-62 52 µM | KM12 > 44.4 µM | M14 > 100 µM | Malme-3M > 48.2 µM | NCI-H460 71 µM | NCI-H522 14.7 µM | OVCAR-4 > 61.7 µM | OVCAR-8 56 µM | RXF 393 33.3 µM | SF-295 > 64.9 µM | SF-539 55.3 µM | SNB-19 27 µM | SNB-75 > 38.5 µM | SW-620 > 80.5 µM | UO-31 > 100 µM

CC(=O)CCC(=O)C(=[N+]=[N-])S(=O)(=O)c1ccccc1
inactive: A549 > 100 µM | BT-549 > 100 µM | DU-145 > 100 µM | HL-60 > 100 µM | HOP-62 > 100 µM | KM12 > 100 µM | M14 > 100 µM | Malme-3M > 100 µM | NCI-H460 > 100 µM | NCI-H522 45.8 µM | OVCAR-8 > 100 µM | RXF 393 > 100 µM | SF-295 > 100 µM | SF-539 > 100 µM | SNB-19 > 100 µM | SNB-75 > 100 µM | SW-620 > 100 µM | UO-31 > 100 µM

O=c1[nH]c(=O)n(C2OC(CO)C(O)C2O)c2nc(-c3ccc(-c4ccccc4)cc3)cnc12 (configuration not stated)
inactive: A549 > 100 µM | BT-549 > 100 µM | DU-145 > 100 µM | HOP-62 > 100 µM | HOP-92 > 100 µM | KM12 > 100 µM | M14 81.8 µM | Malme-3M > 100 µM | NCI-H460 > 100 µM | NCI-H522 > 100 µM | OVCAR-4 > 100 µM | OVCAR-8 > 100 µM | RXF 393 > 100 µM | SF-295 > 100 µM | SF-539 > 100 µM | SNB-19 > 100 µM | SNB-75 > 100 µM | SW-620 > 100 µM | UO-31 > 100 µM

O=c1c(/C=C/c2c(O)ccc3ccccc23)nnc2sc(-c3cccc([N+](=O)[O-])c3)nn12
inactive: BT-549 17.2 µM | DU-145 8.38 µM | HL-60 2.62 µM | HOP-62 18.2 µM | HOP-92 24.2 µM | KM12 22.1 µM | M14 10.8 µM | Malme-3M 11.4 µM | NCI-H522 9.33 µM | OVCAR-4 6.98 µM | OVCAR-8 13.7 µM | RXF 393 19.4 µM | SF-295 26.8 µM | SW-620 3.03 µM | UO-31 9.93 µM

COc1cc(O)c2c(=O)c(OC)c(-c3ccc4c(c3)OCO4)oc2c1
inactive: A549 > 28.8 µM | BT-549 4.04 µM | DU-145 > 100 µM | HL-60 > 100 µM | HOP-62 7.76 µM | KM12 > 100 µM | M14 > 85.1 µM | Malme-3M > 100 µM | NCI-H460 6.01 µM | NCI-H522 6.53 µM | OVCAR-8 6.15 µM | RXF 393 11.2 µM | SF-295 14.4 µM | SF-539 > 27.4 µM | SNB-19 5.66 µM | SNB-75 5.9 µM | SW-620 > 100 µM | UO-31 > 100 µM

COCN1C(=O)[C@@H]2CCCN2C(=O)c2cc(N)ccc21
inactive: A549 > 100 µM | BT-549 > 100 µM | DU-145 > 100 µM | HOP-62 > 100 µM | KM12 > 100 µM | M14 > 100 µM | Malme-3M > 100 µM | NCI-H522 > 100 µM | OVCAR-4 > 100 µM | OVCAR-8 > 100 µM | RXF 393 > 100 µM | SF-295 > 100 µM | SF-539 > 100 µM | SNB-19 > 100 µM | SNB-75 > 100 µM | SW-620 > 100 µM | UO-31 > 100 µM

CCOC(=O)c1cnc2[nH]ccn2c1=O
inactive: A549 > 10 µM | BT-549 > 10 µM | DU-145 > 10 µM | HL-60 > 10 µM | HOP-62 > 10 µM | HOP-92 > 10 µM | KM12 > 10 µM | M14 > 10 µM | Malme-3M > 10 µM | NCI-H460 > 10 µM | OVCAR-4 > 10 µM | OVCAR-8 > 10 µM | RXF 393 > 10 µM | SF-295 > 10 µM | SF-539 > 10 µM | SNB-19 > 10 µM | SNB-75 > 10 µM | SW-620 > 10 µM | UO-31 > 10 µM

O=C(Cc1ccc2ccccc2c1)NCc1ccc(C(=O)NCCc2ccccc2)cc1
inactive: A549 > 100 µM | BT-549 > 100 µM | DU-145 > 100 µM | HOP-62 > 100 µM | HOP-92 > 100 µM | KM12 > 100 µM | M14 > 100 µM | Malme-3M > 100 µM | NCI-H460 > 100 µM | NCI-H522 > 100 µM | OVCAR-4 > 100 µM | OVCAR-8 > 100 µM | RXF 393 > 100 µM | SF-295 > 100 µM | SNB-19 > 100 µM | SNB-75 > 100 µM | SW-620 > 100 µM | UO-31 > 100 µM

Cn1nc2ccc([N+](=O)[O-])cc2[n+]1[O-]
inactive: A549 > 100 µM | BT-549 > 100 µM | DU-145 > 100 µM | HOP-62 > 100 µM | KM12 > 100 µM | M14 > 100 µM | Malme-3M > 100 µM | NCI-H460 > 100 µM | NCI-H522 > 100 µM | OVCAR-4 > 100 µM | OVCAR-8 > 100 µM | RXF 393 > 100 µM | SF-295 > 100 µM | SF-539 > 100 µM | SNB-19 > 100 µM | SNB-75 > 100 µM | UO-31 > 100 µM

CCN1C(=O)C(=C/C=C/c2ccc(OC)cc2)C(=O)N(CC)C1=S
inactive: A549 > 100 µM | BT-549 26.7 µM | DU-145 19.1 µM | HL-60 7.5 µM | HOP-62 18.6 µM | HOP-92 14.2 µM | KM12 20.3 µM | M14 22.1 µM | Malme-3M 12.5 µM | NCI-H460 30.7 µM | OVCAR-4 95.5 µM | OVCAR-8 21.4 µM | RXF 393 17.2 µM | SF-295 60.4 µM | SF-539 19.6 µM | SNB-19 37.9 µM | SW-620 20.8 µM | UO-31 40.3 µM

O=C(O)COc1cc(-c2ccccc2F)nc2cc3c(cc12)OCO3
inactive: A549 > 100 µM | BT-549 98.6 µM | DU-145 > 100 µM | HOP-62 > 100 µM | HOP-92 61.8 µM | KM12 > 100 µM | M14 > 100 µM | Malme-3M > 100 µM | OVCAR-8 > 100 µM | RXF 393 > 100 µM | SF-295 > 100 µM | SF-539 > 100 µM | SNB-75 > 100 µM | SW-620 > 100 µM

— ChEMBL document CHEMBL1201862, “PubChem BioAssay data set” (2004)
